Measurements taken from paper PMC8504577, “Evaluation of a Clinically Relevant Drug–Drug Interaction Between Rosuvastatin and Clopidogrel and the Risk of Hepatotoxicity” (Frontiers in Pharmacology, 2021).

Assays:
MRP2 = biological target: T1, MRP2 (Homo sapiens, UniProt Q92887); assay: RSV uptake into MRP2-expressing membrane vesicles; assay type: biochemical; conditions: ATP vs AMP; data not shown
T1 construct: purchased GenoMembrane Co., Ltd. (Yokohama, Japan) GM0001
Method: The vesicular transport activity was determined by the 96-well rapid filtration method in BCRP- and MRP2-expressing membrane vesicles. […] Meanwhile, 5 μL RSV (final concentration, 1 μM) and 20 μL reagent C2 were pre-incubated at 37°C for 5 min. Then, the transport was initiated by mixing them in a 50 μL reaction system and incubated for the designated time at 37°C. The transport was terminated by adding 200 μL of cold buffer B2 at 4°C. Then, the mixture was filtered using a 96-well filter plate. After washing the vesicles five times with 200 μL of cold buffer B2 at 4°C, the vesicles were lysed with 50 μL of 80% […] twice and then centrifuged at 2000 rpm/min for 2 min. Lysates were collected and then centrifuged at 12,000 rpm/min for 5 min. The supernatants were injected onto the LC-MS/MS. The same procedures were applied to AMP-containing samples except that reagent D2 was used instead of reagent C2. All experiments were performed in quadruplicate.

OATP1B3 = tested on: OATP1B3; parameters: method as in Elsby et al., 2016; conditions: ref Elsby et al., 2016; cited from earlier work

T1 sequence (Q92887 whole entry): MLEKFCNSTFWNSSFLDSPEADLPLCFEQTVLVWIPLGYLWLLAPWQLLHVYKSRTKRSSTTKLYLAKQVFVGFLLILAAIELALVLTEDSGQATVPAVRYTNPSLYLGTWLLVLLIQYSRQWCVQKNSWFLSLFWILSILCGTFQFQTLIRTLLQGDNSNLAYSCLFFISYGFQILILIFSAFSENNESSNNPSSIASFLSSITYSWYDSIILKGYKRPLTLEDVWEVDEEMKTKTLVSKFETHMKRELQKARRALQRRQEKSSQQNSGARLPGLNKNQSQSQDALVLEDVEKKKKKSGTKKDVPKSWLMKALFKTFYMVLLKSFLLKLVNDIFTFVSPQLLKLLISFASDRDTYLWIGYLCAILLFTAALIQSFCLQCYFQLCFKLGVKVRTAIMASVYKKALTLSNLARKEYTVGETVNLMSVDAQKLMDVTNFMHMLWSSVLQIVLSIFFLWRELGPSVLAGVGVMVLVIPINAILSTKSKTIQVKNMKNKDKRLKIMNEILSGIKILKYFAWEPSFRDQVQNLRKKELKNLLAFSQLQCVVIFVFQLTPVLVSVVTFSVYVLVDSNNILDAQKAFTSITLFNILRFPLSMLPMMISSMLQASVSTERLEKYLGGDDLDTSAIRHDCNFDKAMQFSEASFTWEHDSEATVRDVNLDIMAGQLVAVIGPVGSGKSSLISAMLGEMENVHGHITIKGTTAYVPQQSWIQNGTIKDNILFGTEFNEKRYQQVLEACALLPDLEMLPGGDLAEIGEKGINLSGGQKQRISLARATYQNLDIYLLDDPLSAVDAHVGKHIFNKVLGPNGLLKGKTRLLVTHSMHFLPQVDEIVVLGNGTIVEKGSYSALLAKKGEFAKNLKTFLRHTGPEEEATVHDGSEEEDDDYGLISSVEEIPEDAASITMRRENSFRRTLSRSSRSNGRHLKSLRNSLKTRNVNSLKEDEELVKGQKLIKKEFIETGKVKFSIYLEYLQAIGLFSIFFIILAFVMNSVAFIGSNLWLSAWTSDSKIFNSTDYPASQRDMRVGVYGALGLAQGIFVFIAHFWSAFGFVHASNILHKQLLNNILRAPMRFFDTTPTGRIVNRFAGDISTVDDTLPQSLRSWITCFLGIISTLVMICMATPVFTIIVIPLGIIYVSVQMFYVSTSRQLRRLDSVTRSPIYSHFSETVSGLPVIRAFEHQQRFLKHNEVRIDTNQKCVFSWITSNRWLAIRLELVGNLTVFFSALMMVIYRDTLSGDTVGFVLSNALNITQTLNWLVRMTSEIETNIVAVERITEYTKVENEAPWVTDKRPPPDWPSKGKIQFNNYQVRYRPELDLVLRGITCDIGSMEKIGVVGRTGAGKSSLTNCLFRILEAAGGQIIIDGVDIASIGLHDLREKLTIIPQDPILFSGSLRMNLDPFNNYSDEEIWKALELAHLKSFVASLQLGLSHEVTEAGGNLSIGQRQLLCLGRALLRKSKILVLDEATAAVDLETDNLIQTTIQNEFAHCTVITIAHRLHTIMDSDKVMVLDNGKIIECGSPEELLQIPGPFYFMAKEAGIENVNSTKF

CC(C)c1nc(N(C)S(C)(=O)=O)nc(-c2ccc(F)cc2)c1/C=C/[C@@H](O)C[C@@H](O)CC(=O)O [RSV, rosuvastatin]
Uptake ratio into MRP2-expressing membrane vesicles (MRP2): less than 2
Individual contribution of OATP1B3 to hepatic uptake (OATP1B3): 0.11
